Here are results for four molecules from patent publication US20220091128A1, “SYSTEM AND METHOD FOR LIGAND THERMAL ANALYSIS” (Portland State University, priority 2019, published 2022).

The target in one data set is biotinylated HSA (HSAB) (Homo sapiens, UniProt P02768). The data set is described as follows: DSC thermograms of biotinylated HSA (HSAB) with ligands. Type of data set: binding.
For data set [1], the target named is T1, human serum albumin (HSA) (Homo sapiens, UniProt P02768).
T1 construct: purchased Sigma Aldrich (St. Louis, Mo.)
The data set is described as follows: DSC thermograms of HSA with ligand (single-ligand titration). Type of data set: binding. The note with it: for Binding Site stoichiometry / Implied number of sites: from dose response curves with HSA; for Tm / ΔG37^O / ΔHcal / ΔScal: thermal denaturation of HSA. The protocol: Chemicals and reagents: Plasma and highly pure plasma proteins are sourced from commercial suppliers. Standard reagents are sourced from commercial suppliers. Samples are prepared in standard phosphate-buffered saline (PBS) buffer. In some examples, human plasma and serum albumin were purchased from Sigma Aldrich (St. Louis, Mo.) and received as lyophilized powder. Plasma was product number: P9523, lot number: SLBT0202. […] In vivo, the standard state of HSA is most certainly bound to some extent by fatty acids. Plasma and HSA stock solutions were prepared by re-suspending the appropriate amount of powder in buffer. Samples were prepared by diluting stock solutions to a final concentration of 1.5-2.0 mg/mL.
Protein concentration was approximately 2 mg/ml.
In a DSC melting experiment, the supplemental power supplied to the sample cell (in μW) necessary to keep the sample temperature equal to the reference temperature is continually monitored. […] Supplemental power is directly related to the molar heat capacity at constant pressure, ΔCp. Curves of ΔCp versus T provide an evaluation of the thermodynamic enthalpy. To enable direct comparisons in some cases, power (μW) versus T plots (instead of ΔCp versus T curves) were used for the following reason.
Analysis of DSC data was performed using the Nanoanalyze software package, version 3.7.5, provided by T.A. Instruments. […]
From the thermograms, semi-quantitative evaluations of the thermodynamic parameters ΔHcal, ΔScal and ΔGcal(37° C.) were obtained at each ligand concentration.
These curves were constructed from titrations of DM1 with HSA. The Tm and ΔGcal(37° C.) were evaluated. The values were normalized against standard HSA and plotted versus ligand concentration to provide the dose curves in FIG. 20A (Tm) and FIG. 20B (ΔGcal(37° C.)).
Natural HSA samples were prepared at pH 6.0 and pH 8.0 and examined by DSC. […] From DSC melting curves thermodynamic parameters for HSA/ligand mixtures were evaluated.
In general terms: DSC measures the heat that a sample takes up or gives off during a temperature scan.

The test system of a further data set is human plasma. The experiment in a line: DSC thermograms of plasma with ligand. It is filed as binding. Particulars: plasma.
Data set [2] deals with T2, HSA (Homo sapiens, UniProt P02768). Also on record: purchased Sigma Aldrich (St. Louis, Mo.). Particulars: cited from earlier work; for Kd: binding to HSA, read-out: Average Literature KD.
For data set [3], the target named is T1, human serum albumin (HSA). The data set is described as follows: Two-ligand (NAP + BCG) binding to standard HSA by DSC.
Data set [4] concerns the target T2, HSA. The data set is described as follows: Drug screening: HSA binding constants from DSC thermograms.
Procedure: (§1) Ligand solubilization: Stock solutions of aqueous insoluble ligands in organic solvents were pipetted into microcentrifuge tubes to yield a desired amount of drug for a 1 mL solution. The microcentrifuge tubes were placed into a vacuum concentrator (Savant SpeedVac Model SC100), and the organic solvents were evaporated, resulting in solid drug in the tube. To each tube, HSA is added at a predetermined concentration with standard buffer to provide a 1 mL working solution.
(§2) In total binding of 28 drug compounds to HSA was examined by obtaining thermograms.
The target of data set [5] is T2, HSA.
Procedure: as §1, §2
The conditions of data set [6]: after several days; cited from earlier work.
The mark [7] stands for this setting: ligand 22.5 μM (so in the source).

“And” between values parts separate entries of the source, which are not always exact repeats. Equal entries are not always repeated. Where two headings read alike, the source gives them in different places.

T2 sequence (P02768 25-609): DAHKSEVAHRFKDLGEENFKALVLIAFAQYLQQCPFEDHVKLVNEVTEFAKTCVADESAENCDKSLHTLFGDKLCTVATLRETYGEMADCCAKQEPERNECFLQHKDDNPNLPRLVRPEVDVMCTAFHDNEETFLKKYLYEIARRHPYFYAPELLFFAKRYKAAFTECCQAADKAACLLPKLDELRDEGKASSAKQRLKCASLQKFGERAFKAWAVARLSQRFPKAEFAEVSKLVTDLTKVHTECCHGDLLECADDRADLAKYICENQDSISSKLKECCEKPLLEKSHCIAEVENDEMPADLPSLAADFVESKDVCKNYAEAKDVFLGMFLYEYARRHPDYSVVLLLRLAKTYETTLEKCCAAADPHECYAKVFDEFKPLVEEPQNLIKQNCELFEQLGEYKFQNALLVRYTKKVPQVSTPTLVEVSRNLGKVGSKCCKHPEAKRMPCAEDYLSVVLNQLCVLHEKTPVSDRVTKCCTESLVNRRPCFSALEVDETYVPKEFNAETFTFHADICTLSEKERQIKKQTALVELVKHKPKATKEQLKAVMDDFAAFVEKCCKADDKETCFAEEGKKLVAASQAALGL
Sequence of biotinylated HSA (HSAB) (P02768 25-609): as above
T1 sequence (P02768 25-609): as above

One may read the Tm as the temperature at which the thermal transition is half complete. A word on the Kd: it is a measure of binding affinity in units of concentration. For `Cc1c(C2(c3cc(Br)c(O)c(Br)c3C)OS(=O)(=O)c3ccccc32)cc(Br)c(O)c1Br` [BCG, bromocresol green], the “Binding Chemical Potentials (ΔG^O37)” value at biotinylated HSA (HSAB) (HSAB 1:1 with 50 μM BCG, [NAP] 0 μM) turned out to be 18.49 kcal/mol; on biotinylated HSA (HSAB) (HSAB 1:1 with 50 μM NAP, [BCG] 50 μM) it was 21.76 kcal/mol; at biotinylated HSA (HSAB) (HSAB 1:1 with 50 μM NAP, [BCG] 75 μM), 22.56 kcal/mol; at biotinylated HSA (HSAB) (HSAB 1:1 with 50 μM NAP, [BCG] 150 μM) it was 22.96 kcal/mol; on biotinylated HSA (HSAB) (HSAB 1:5 with 50 μM BCG, [NAP] 0 μM) it was 21.27 kcal/mol; on biotinylated HSA (HSAB) (HSAB 1:5 with 50 μM NAP, [BCG] 50 μM) it was 24.12 kcal/mol. The “Binding Chemical Potentials (ΔG^O37)” value at biotinylated HSA (HSAB) (HSAB 1:5 with 50 μM NAP, [BCG] 75 μM) is 25.60 kcal/mol; on biotinylated HSA (HSAB) (HSAB 1:5 with 50 μM NAP, [BCG] 150 μM), 25.06 kcal/mol; on biotinylated HSA (HSAB) (HSAB 1:10 with 50 μM BCG, [NAP] 0 μM), 22.37 kcal/mol; at biotinylated HSA (HSAB) (HSAB 1:10 with 50 μM NAP, [BCG] 50 μM), 25.04 kcal/mol; on biotinylated HSA (HSAB) (HSAB 1:10 with 50 μM NAP, [BCG] 75 μM), 25.30 kcal/mol; on biotinylated HSA (HSAB) (HSAB 1:10 with 50 μM NAP, [BCG] 150 μM), 24.99 kcal/mol. Also, the “Binding Chemical Potentials (ΔG^O37)” value amounted to 14.00 kcal/mol in data set [3] (HSA25BCG (HSA + 25 μM BCG), [NAP] 0 μM); 18.33 kcal/mol in data set [3] (HSA25NAP (pre-bound 25 μM NAP), [BCG] 50 μM); 19.49 kcal/mol in data set [3] (HSA25NAP (pre-bound 25 μM NAP), [BCG] 75 μM); 19.61 kcal/mol in data set [3] (HSA25NAP (pre-bound 25 μM NAP), [BCG] 150 μM); 15.13 kcal/mol in data set [3] (HSA50BCG (HSA + 50 μM BCG), [NAP] 0 μM); 18.27 kcal/mol in data set [3] (HSA50NAP (pre-bound 50 μM NAP), [BCG] 50 μM). In addition, the “Binding Chemical Potentials (ΔG^O37)” value in data set [3] (HSA50NAP (pre-bound 50 μM NAP), [BCG] 75 μM) is reported as 18.47 kcal/mol; in data set [3] (HSA50NAP (pre-bound 50 μM NAP), [BCG] 150 μM), 19.29 kcal/mol; in data set [3] (HSA75BCG (HSA + 75 μM BCG), [NAP] 0 μM) it was 15.33 kcal/mol; in data set [3] (HSA75NAP (pre-bound 75 μM NAP), [BCG] 50 μM), 19.51 kcal/mol; in data set [3] (HSA75NAP (pre-bound 75 μM NAP), [BCG] 75 μM), 20.42 kcal/mol; in data set [3] (HSA75NAP (pre-bound 75 μM NAP), [BCG] 150 μM), 21.08 kcal/mol. In addition, the “Binding Chemical Potentials (ΔG^O37)” value is listed as 15.19 kcal/mol in data set [3] (WT HSA with 50 μM BCG, [NAP] 0 μM); 18.38 kcal/mol in data set [3] (WT HSA with 50 μM NAP, [BCG] 50 μM); 18.74 kcal/mol in data set [3] (WT HSA with 50 μM NAP, [BCG] 75 μM); 19.86 kcal/mol in data set [3] (WT HSA with 50 μM NAP, [BCG] 150 μM). Moreover, the “increase of ΔGcal(37° C.) versus titration curve at pH 7.4” value in data set [1] (HSA + ligand at pH 6.0, as much as) is reported as about 5 kcal/mol. Besides, the “lowering of ΔGcal(37° C.) versus titration curve at pH 7.4” value in data set [1] (HSA + ligand at pH 8.0) is recorded as about 2 kcal/mol. Further, in data set [1] (HSA, 100 μM ligand (text, FIG. 10B)), the “ΔHcal of HSA/ligand” value is 165.6 kcal/mol and 166 kcal/mol. In data set [1], the “Binding Site stoichiometry” value is given as 3. In addition, the “Implied number of sites” value in data set [1] worked out at 6. Besides, the Tm in data set [1] (ligand 1 μM) came out at 62.9 °C; in data set [1] (ligand 10 μM) it was 63.3 °C; in data set [1] (setting [7]) it was 70.8 °C; in data set [1] (ligand 25 μM) it was 63.6 °C; in data set [1] (ligand 50 μM) it was 64.0 °C; in data set [1] (ligand 75 μM) it was 64.6 °C. The melting temperature (Tm) in data set [1] (ligand 125 μM) was 67.2 °C; in data set [1] (ligand 150 μM), 69.0 °C; in data set [1] (ligand 175 μM), 69.1 °C; in data set [1] (ligand 200 μM), 70.3 °C. Besides, the “ΔG37^O” value came out at 13.11 kcal/mol in data set [1] (ligand 1 μM); 13.83 kcal/mol in data set [1] (ligand 10 μM); 16.43 kcal/mol in data set [1] (setting [7]); 14.39 kcal/mol in data set [1] (ligand 25 μM); 15.19 kcal/mol in data set [1] (ligand 50 μM); 15.33 kcal/mol in data set [1] (ligand 75 μM). The “ΔG37^O” value in data set [1] (ligand 125 μM) turned out to be 16.18 kcal/mol; in data set [1] (ligand 150 μM), 16.74 kcal/mol; in data set [1] (ligand 175 μM) it was 15.92 kcal/mol; in data set [1] (ligand 200 μM), 16.24 kcal/mol. The ΔHcal was 170.12 kcal/mol in data set [1] (ligand 1 μM); 176.99 kcal/mol in data set [1] (ligand 10 μM); 167.24 kcal/mol in data set [1] (setting [7]); 182.05 kcal/mol in data set [1] (ligand 25 μM); 189.75 kcal/mol in data set [1] (ligand 50 μM); 187.76 kcal/mol in data set [1] (ligand 75 μM). Further, the ΔHcal in data set [1] (ligand 125 μM) came out at 182.33 kcal/mol; in data set [1] (ligand 150 μM) it was 178.84 kcal/mol; in data set [1] (ligand 175 μM), 169.77 kcal/mol; in data set [1] (ligand 200 μM), 167.42 kcal/mol. For the same molecule, the ΔScal in data set [1] (ligand 1 μM) was 506.23 cal/molK; in data set [1] (ligand 10 μM) it was 526.08 cal/molK; in data set [1] (setting [7]), 486.25 cal/molK; in data set [1] (ligand 25 μM), 540.59 cal/molK; in data set [1] (ligand 50 μM) it was 562.81 cal/molK; in data set [1] (ligand 75 μM), 555.95 cal/molK. Besides, the ΔScal in data set [1] (ligand 125 μM) came out at 535.71 cal/molK; in data set [1] (ligand 150 μM), 522.66 cal/molK; in data set [1] (ligand 175 μM), 496.04 cal/molK; in data set [1] (ligand 200 μM) it was 487.44 cal/molK. Besides, in the data set with human plasma (100 μM ligand), the “shift in Tm” value is “about 7 °C”. Moreover, in the data set with human plasma (100 μM ligand (FIG. 10A)), the “enthalpy (ΔHcal) of plasma with ligand” value is listed as 141 kcal/mol. For the same molecule, the “major Tm peak of plasma shifted to” value in the data set with human plasma (100 μM ligand (FIG. 10A)) came out at 72 °C. In addition, the “binding stoichiometry n on HSA” value on HSA [2] (NAP Sudlow site II, BCG Sudlow site I) is given as 3. Also, the Kd on HSA [2] was 1.43 µM; on HSA [4] (read-out: Average Measured KD; binding to HSA; single value or value marked 1)), 3.31 µM; on HSA [4] (read-out: Measured KD From TM; binding to HSA; single value or value marked 1)) it was 4.97 µM; on HSA [4] (read-out: Measured KD from ΔG^037; binding to HSA; single value or value marked 1)) it was 1.64 µM.

Take `CNC[C@H](O)[C@@H](O)[C@H](O)[C@H](O)CO.CNC[C@H](O)[C@@H](O)[C@H](O)[C@H](O)CO.O=C([O-])CN(CCN(CC(=O)[O-])CC(=O)O)CCN(CC(=O)[O-])CC(=O)O.[Gd+3]` [Magnevist (MAG)]: on HSA [5], the “Measured HSA binding (cell spanning the measured KD columns; same in text)” value is listed as “No Binding Detected”.

As to `CCCCNc1ccc(C(=O)OCCN(C)C)cc1` [Tet, Tetracaine], in data set [1], the “Binding Site stoichiometry” value is reported as 1. For the same molecule, the “Implied number of sites” value in data set [1] is listed as 1. The “effect on fibrinogen melting transition peak (52° C.) of the plasma thermogram” value with human plasma (2 mg/mL ligand) is reported as “slight change”. In addition, the “Tm where the HSA in plasma transition occurs” value in the data set with human plasma (2 mg/mL ligand, control 62-64° C.) is 63-65 °C. Besides, the equilibrium dissociation constant (Kd) on HSA [2] is 59.8 µM; at HSA [4] (Average Measured KD, binding to HSA; single value or value marked 1)), 26.1 µM; on HSA [4] (Measured KD From TM, binding to HSA; single value or value marked 1)), 23.6 µM; on HSA [4] (Measured KD from ΔG^037, binding to HSA; single value or value marked 1)) it was 28.6 µM. Besides, in data set [6], the in vivo activity entry is given as “retained significant activity after several days”.

Consider `O=C([O-])CN1CCN(CC(=O)[O-])CCN([C@H](CO)[C@H](O)CO)CCN(CC(=O)[O-])CC1.[Gd+3]` [Gadavist (GAD)], for which the “Measured HSA binding (cell spanning the measured KD columns; same in text)” value at HSA [5] is listed as “No Binding Detected”.
